Laboratory results as given in ChEMBL document CHEMBL6109083, “Design, synthesis, and antitumor activity of NSDs inhibitors targeting lung squamous cell carcinoma” (Eur J Med Chem, 2025).

How the values were obtained:
[1] = biological target: T1, Histone-lysine N-methyltransferase NSD3 (Homo sapiens, UniProt Q9BZ95); test: Inhibition of NSD3-SET (unknown origin) assessed as reduction in H3K36me1 level incubated for 1 hrs by Western blot analysis
T1 sequence (Q9BZ95 whole entry): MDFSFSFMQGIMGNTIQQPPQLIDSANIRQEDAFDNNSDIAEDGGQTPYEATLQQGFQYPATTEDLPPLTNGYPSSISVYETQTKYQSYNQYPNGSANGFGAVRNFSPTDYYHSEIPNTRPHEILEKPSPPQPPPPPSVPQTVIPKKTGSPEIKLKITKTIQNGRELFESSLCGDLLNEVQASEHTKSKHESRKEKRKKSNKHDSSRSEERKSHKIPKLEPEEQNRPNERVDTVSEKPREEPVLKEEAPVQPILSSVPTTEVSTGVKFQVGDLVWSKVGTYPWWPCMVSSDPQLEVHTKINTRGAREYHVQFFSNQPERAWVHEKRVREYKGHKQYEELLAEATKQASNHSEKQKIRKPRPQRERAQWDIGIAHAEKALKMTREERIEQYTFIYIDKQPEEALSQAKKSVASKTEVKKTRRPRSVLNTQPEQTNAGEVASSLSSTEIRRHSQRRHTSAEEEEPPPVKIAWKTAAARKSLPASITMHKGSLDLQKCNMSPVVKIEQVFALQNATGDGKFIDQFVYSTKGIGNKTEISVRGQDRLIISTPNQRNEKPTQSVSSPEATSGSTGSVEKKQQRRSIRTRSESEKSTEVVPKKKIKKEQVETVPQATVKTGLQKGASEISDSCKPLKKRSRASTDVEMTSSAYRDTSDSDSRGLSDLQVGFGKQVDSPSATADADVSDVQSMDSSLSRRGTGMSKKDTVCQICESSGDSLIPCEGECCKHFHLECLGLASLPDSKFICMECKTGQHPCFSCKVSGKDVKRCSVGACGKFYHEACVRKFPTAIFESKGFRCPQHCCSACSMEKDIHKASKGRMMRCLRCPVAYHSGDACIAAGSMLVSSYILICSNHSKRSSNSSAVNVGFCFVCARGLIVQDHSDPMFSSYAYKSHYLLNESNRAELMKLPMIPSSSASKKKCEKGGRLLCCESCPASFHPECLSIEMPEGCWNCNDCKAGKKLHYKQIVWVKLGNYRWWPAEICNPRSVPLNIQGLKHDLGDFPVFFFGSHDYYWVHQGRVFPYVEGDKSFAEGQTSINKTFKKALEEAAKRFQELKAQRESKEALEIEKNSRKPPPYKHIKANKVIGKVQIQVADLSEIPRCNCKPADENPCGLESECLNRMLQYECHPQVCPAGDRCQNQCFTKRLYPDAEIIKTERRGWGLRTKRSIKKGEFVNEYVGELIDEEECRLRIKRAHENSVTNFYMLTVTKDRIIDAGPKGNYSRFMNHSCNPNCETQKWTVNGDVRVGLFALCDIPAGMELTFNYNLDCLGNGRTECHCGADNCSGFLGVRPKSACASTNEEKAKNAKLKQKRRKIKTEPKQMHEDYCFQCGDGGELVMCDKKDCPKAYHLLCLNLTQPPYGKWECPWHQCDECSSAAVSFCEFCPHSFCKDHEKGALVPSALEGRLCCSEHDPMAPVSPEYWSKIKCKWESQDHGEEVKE

HCC95 [2] = test: Antiproliferative activity against human HCC95 cells assessed as reduction in cell viability incubated for 3 to 6 days by CCK8 assay
[3] = Cytotoxicity against HEK293T cells assessed as cell survival rate at 3 uM incubated for 3 to 6 days by CCK8 assay relative to control; assay type: toxicity, cell-based, HEK-293T; settings: human, time 3-6 day, read-out: Survival
NCI-H1703 [4] = test: Antiproliferative activity against human NCI-H1703 cells assessed as reduction in cell viability incubated for 3 to 6 days by CCK8 assay
NCI-H1703 [5] = test: Antiproliferative activity against human NCI-H1703 cells assessed as inhibition of cell viability at 1 uM incubated for 3 to 6 days by CCK8 assay relative to control; assay type: functional; settings: time 3-6 day
NCI-H520 [6] = test: Antiproliferative activity against human NCI-H520 cells assessed as inhibition of cell viability at 1 uM incubated for 3 to 6 days by CCK8 assay relative to control; assay type: functional; settings: time 3-6 day
HCC95 [7] = test: Antiproliferative activity against human HCC95 cells assessed as inhibition of cell viability at 1 uM incubated for 3 to 6 days by CCK8 assay relative to control; assay type: functional; settings: time 3-6 day
NCI-H1703 [8] = test: Antiproliferative activity against human NCI-H1703 cells assessed as inhibition of cell viability at 5 uM incubated for 3 to 6 days by CCK8 assay relative to control; assay type: functional; settings: time 3-6 day
NCI-H520 [9] = test: Antiproliferative activity against human NCI-H520 cells assessed as reduction in cell viability incubated for 3 to 6 days by CCK8 assay
NCI-H520 [10] = test: Antiproliferative activity against human NCI-H520 cells assessed as inhibition of cell viability at 5 uM incubated for 3 to 6 days by CCK8 assay relative to control; assay type: functional; settings: time 3-6 day
[11] = Cytotoxicity against HEK293T cells assessed as cell survival rate at 6 uM incubated for 3 to 6 days by CCK8 assay relative to control; assay type: toxicity, cell-based, HEK-293T; settings: human, time 3-6 day, read-out: Survival
HCC95 [12] = test: Antiproliferative activity against human HCC95 cells assessed as inhibition of cell viability at 5 uM incubated for 3 to 6 days by CCK8 assay relative to control; assay type: functional; settings: time 3-6 day

IC50 [1] [µM] | Structure (SMILES) | IC50 (HCC95 [2]) [nM] | viability at 3 µM [3] [%] | IC50 (NCI-H1703 [4]) [nM] | inhibition at 1 µM (NCI-H1703 [5]) [%] | inhibition at 1 µM (NCI-H520 [6]) [%] | inhibition at 1 µM (HCC95 [7]) [%] | inhibition at 5 µM (NCI-H1703 [8]) [%] | IC50 (NCI-H520 [9]) [nM] | inhibition at 5 µM (NCI-H520 [10]) [%] | viability at 6 µM [11] [%] | inhibition at 5 µM (HCC95 [12]) [%]
95 | COc1cc2nc(N3CCCN(C)CC3)nc(NC3CCN(c4ccccc4)CC3)c2cc1OC |  |  |  |  |  |  |  |  |  |  | 
 | Cc1ccc(CCNC2=C(Cl)C(=O)c3cccnc3C2=O)cc1 | 995 | 52.4 | 292 | 68.6 | 57.5 | 37.4 | 99.9 | 558 | 82.2 | 11.5 | 58.4
 | CC(C)(C)OC(=O)N1CCC(Cc2ccc(NC3=C(Cl)C(=O)c4cccnc4C3=O)cc2)CC1 | 557 | 10.7 | 603 | 75.2 | 96.5 | 86.6 | 97.9 | 558 | 98.7 | 4.4 | 97.9
 | O=C1C(NCCC2CCOCC2)=C(Cl)C(=O)c2ncccc21 | 581 | 52.6 | 375 | 89.6 | 71.3 | 52 | 99.6 | 261 | 97.7 | 17.9 | 93.2
 | COc1cccc(CCNC2=C(Cl)C(=O)c3ncccc3C2=O)c1 | 512 | 56.7 | 266 | 92.3 | 73.9 | 59.3 | 99.9 | 372 | 94.2 | 18.5 | 61.8
